Data reported in patent US20250381183A1, “TARGETING S100A9-ALDH1A1-RETINOIC ACID SIGNALING TO SUPPRESS BRAIN RELAPSE IN EGFR-MUTANT LUNG CANCER” (The Trustees of Columbia University in the City of New York, priority 2022, published 2025).

Columns and labels:
RAR target gene STRA6 [1] = assay: STRA6 expression by qRT-PCR in PC9-Tr-BrM cells; assay type: cell-based, human; details: two days; for inhibition of retinol-induced STRA6 expression: 5 μM retinol and 5 μM antagonist
Method: (§1) FIG. 13A-FIG. 13B: STRA6 expression was determined by qRT-PCR analysis of Tr-BrM cells from the PC9 model (13(a)) and H1650 model (13(b)), which were treated with either DMSO, retinol or retinol plus different retinoic acid receptor antagonists. Cells were cultured for two days in serum-free RPMI medium with DMSO alone, with 5 μM retinol alone, or medium with both 5 μM retinol and 5 μM antagonists (either the RAR-α antagonist BMS-195614, the RAR-γ antagonist MM-11253, or the pan-RAR antagonist AGN-194310). After two days of culturing, cells were washed and collected for RNA analysis. GAPDH was measured as an internal control. […] For the PC9 model in 13(a), n=8 for vehicle; n=5 for retinol; n=3 for retinol plus the RAR-alpha inhibitor (“RAR-α-inh.”); n=3 for retinol plus the RAR-gamma inhibitor (“RAR-γ-inh.”); n=4 for retinol plus the pan-RAR inhibitor (“pan-RAR-inh.”). For the H1650 model in 13(b), n=7 for all groups.

H1650-derivatives = assay: Lung orthotopic (intrathoracic) implantation, H1650-derivatives, AGN194310 treatment; assay type: in vivo, mice; details: H1650-derived, directly implanted in the lung, treated 2 weeks
Method: FIG. 12K: Schematic representation of the experimental protocol for lung orthotopic injections. H1650-Tr-BrM-lung derivatives stably expressing either Lenti-Con, S100A9i, ALDH1A1i, or S100A9i plus ALDH1A1 o/e were injected in the lung (intrathoracic injections, labeled as “lung orthotopic injection” in the figure). Mice were euthanized at 21 days post tumor-cell injection for analysis.
FIG. 13P-FIG. 13Q: Violin plots depicting normalized photon flux of lung measured by bioluminescence imaging of mice. […] For panel (p): n=8 for Veh, and n=11 for Pan-RARi. For panel (q): n=7 for Veh, and n=8 for Pan-RARi.

RAR target gene STRA6 [2] = assay: STRA6 expression by qRT-PCR in H1650-Tr-BrM cells; assay type: cell-based, human; details: two days; for inhibition of retinol-induced STRA6 expression: 5 μM retinol and 5 μM antagonist
Method: as §1

H1650-Tr-BrM cells [3] = assay: Treatment of H1650-Tr-BrM brain metastasis in mice with AGN194310 and/or osimertinib; details: 0.5 mg/kg body weight/day, five days per week from day 25 to 7 weeks, vs vehicle and osimertinib alone
PC9-Tr-BrM cells [4] = assay: Treatment of PC9-Tr-BrM brain metastasis in mice with AGN194310 and/or osimertinib; details: 0.5 mg/kg body weight/day, five days per week from day 25 to 7 weeks, vs vehicle and osimertinib alone
HCC4006 = assay: Cell viability assay, sensitivity to pan-RAR inhibition, HCC4006; assay type: cell-based, human; details: HCC4006, lacks S100A9 and ALDH1A1 expression
Method: (§2) FIG. 13C: Cell viability assay for comparing in-vitro sensitivity of the indicated cell lines to pan-RAR-inhibition (AGN194310, abbreviated as “AGN”). Cell viability values are normalized to the vehicle (DMSO)-treated control, presented as the mean values±SEM, and representative of three independent experiments. P-values were determined by two-way ANOVA with Tukey's test.

PC9-derivatives = assay: Lung orthotopic (intrathoracic) implantation, PC9-derivatives, AGN194310 treatment; assay type: in vivo, mice; details: PC9-derived, directly implanted in the lung, treated 2 weeks
H1975 = assay: Cell viability assay, sensitivity to pan-RAR inhibition, H1975; assay type: cell-based, human; details: H1975, lacks S100A9 and ALDH1A1 expression
Method: as §2

[5] = system: phospho-EGFR (Tyr1068), phospho-ERK; details: H1650-BrM and H1650-Tr-BrM, 6 hours post treatment, similar in both
Excerpt: Antibodies against phospho-EGFR (Tyr1068), phospho-ERK, total-EGFR, total-ERK and β-actin (loading control) were used. Data are representative of three independent experiments.

[6] = system: phospho-EGFR (Tyr1068), phospho-ERK (Thr202/Tyr204); details: PC9-BrM and PC9-Tr-BrM, 6 hours post-treatment, similar in both
Excerpt: Antibodies against phospho-EGFR (Tyr1068), phospho-ERK (Thr202/Tyr204), total-EGFR, total-ERK and □-actin (loading control) were used. Data are representative of three independent experiments.

PC9-Tr-BrM cells [7] = assay: PC9-Tr-BrM (osimertinib-refractory) brain metastasis mouse model, vehicle or osimertinib; assay type: in vivo, immunodeficient mice; details: PC9-Tr-BrM-injected mice, osimertinib vs vehicle
Method: FIG. 1E: Kaplan-Meier plot for brain-metastasis-progression-free survival of mice injected with PC9-Tr-BrM cells followed by treatment with either vehicle or osimertinib. Data were analyzed using the log-rank test: χ2=1.325, d.f.=1, p-value not significant (ns), n=20 for vehicle-treated mice and 17 for osimertinib-treated mice.
Mice were euthanized at 7 weeks post tumor-cell injection. Scale bars, 200 μm.
To understand the underlying mechanisms of brain relapse using this model, we isolated brain metastatic cells from the relapsed brain of osimertinib-treated mice and designated them PC9-Tr-BrM (Treated Brain Metastatic, FIG. 1d).

phospho-EGFR (Tyr1068) [8] = assay: phospho-EGFR immunostaining of brain sections, H1650-BrM model; assay type: in vivo, immunodeficient mice; details: osimertinib 5 mg/kg/day vs vehicle
Excerpt: FIG. 9D: Brain sections from mice injected with H1650-BrM cells described in FIG. 8g-h were immunostained using an antibody against phospho-EGFR (Tyr1068). […] Mice were then euthanized, and brain tissues were subsequently processed for histological analysis. Representative images of immunohistochemical staining for phospho-EGFR in brain sections are shown. Dotted lines surround the location of metastatic cells in the brain. Scale bars, 100 μm.
FIG. 9E: The pEGFR-stained brain sections from the H1650-derived model described in panel (d) were quantitated using automated Qu-Path software to count pEGFR-positive cancer cells that were identified by setting a threshold for signal intensity (1+). Data are represented as mean values±SEM.

EGFR-mutant lung cancer = details: cited from earlier work
phospho-EGFR (Tyr1068) [9] = assay: phospho-EGFR immunostaining of brain sections, PC9-BrM model; assay type: in vivo, immunodeficient mice; details: osimertinib 5 mg/kg/day vs vehicle
Excerpt: FIG. 2B: Brain sections from mice injected with PC9-BrM cells described in FIG. 1a-b were immunostained using an antibody against phospho-EGFR (Tyr1068). […] The endpoint for vehicle-treated mice was two months post tumor-cell injection (“Vehicle”). The endpoint for osimertinib-treated mice was 4 months post tumor-cell injection for micrometastases (“Micromet”) and 8 months post tumor-cell injection for relapsed metastatic lesion (“Relapsed Met”). For the osimertinib treatment group, mice were administered osimertinib by oral gavage. At 6 hours post treatment, mice were euthanized, and brain tissues were subsequently processed for histological analysis. Representative images of immunohistochemical staining for phospho-EGFR in brain sections are shown. Arrows point to, and dotted line surrounds, the location of metastatic cells in the brain.
FIG. 2C: The pEGFR-immunostained brain sections described in panel (b) were quantitated using automated Qu-Path software to count pEGFR-positive cancer cells that were identified by setting a threshold for signal intensity (1+).

H1650-Tr-BrM cells [10] = assay: H1650-Tr-BrM brain metastasis mouse model, vehicle or osimertinib; assay type: in vivo, immunodeficient mice; details: H1650-Tr-BrM-injected mice
Method: . Data were analyzed using the log-rank test: χ2=2.541, d.f.=1, p-value not significant (ns), n=6 for vehicle-treated mice, and n=4 for osimertinib-treated mice.
. Arrow points to the location of metastatic cells in the brain. Mice were euthanized at 60 days post tumor-cell injection. Scale bars, 200 μm.
FIG. 8H: Quantitative analysis of the percentage of brain tissue sections covered by metastasis from the experiment described in panel (g). […]; We then isolated brain metastatic cells from the osimertinib-treated mice (designated H1650-Tr-BrM), injected them into the arterial circulation of naive immunodeficient mice and treated the mice with either vehicle or osimertinib.

[11] = serum-free media, 5 μM retinol alone vs DMSO

In the case of `CCc1ccc(C2=CC(C)(C)Sc3ccc(C#Cc4ccc(C(=O)O)cc4)cc32)cc1` [AGN-194310], the “inhibition of retinol-induced STRA6 expression” value (RAR target gene STRA6 [1]) is reported as “dramatically reduced”, the “lung lesions (normalized photon flux)” value (H1650-derivatives) is reported as “modestly reduced” and the “inhibition of retinol-induced STRA6 expression” value (RAR target gene STRA6 [2]) is reported as “dramatically reduced”. For the same molecule, the “brain metastasis (bioluminescence imaging and CK7 metastasis surface area)” value (H1650-Tr-BrM cells [3]) was “striking reduction”, the “brain metastasis (bioluminescence imaging and CK7 metastasis surface area)” value (PC9-Tr-BrM cells [4]) was “striking reduction” and the loss of viability (HCC4006) was “did not show dose-dependent loss of viability”. The “lung lesions (normalized photon flux)” value (PC9-derivatives) was “modestly reduced” and the loss of viability (H1975) was “did not show dose-dependent loss of viability”.

In the case of `CC1(C)CC=C(c2cnc3ccccc3c2)c2cc(C(=O)Nc3ccc(C(=O)O)cc3)ccc21` [BMS195614], the “inhibition of retinol-induced STRA6 expression” value (RAR target gene STRA6 [1]) is reported as “only modestly inhibited” and the “inhibition of retinol-induced STRA6 expression” value (RAR target gene STRA6 [2]) is reported as “only modestly inhibited”.

With `CC1(C)CCC(C)(C)c2cc(C3(c4ccc5cc(C(=O)O)ccc5c4)SCCS3)ccc21` [MM11253] the “inhibition of retinol-induced STRA6 expression” value (RAR target gene STRA6 [1]) was “only modestly inhibited” and the “inhibition of retinol-induced STRA6 expression” value (RAR target gene STRA6 [2]) was “only modestly inhibited”.

For `C=CC(=O)Nc1cc(Nc2nccc(-c3cn(C)c4ccccc34)n2)c(OC)cc1N(C)CCN(C)C` [osimertinib], the “inhibition of EGFR and ERK phosphorylation” value [5] was “dose-dependent inhibition”, the “inhibition of EGFR and ERK phosphorylation” value [6] was “dose-dependent inhibition” and the brain-metastasis-progression-free survival (PC9-Tr-BrM cells [7]) was “no longer increased”. The “p-EGFR in brain metastatic lesions” value (phospho-EGFR (Tyr1068) [8]) was “significantly reduced”, the “median progression-free survival (PFS)” value (EGFR-mutant lung cancer; first-line treatment, EGFR-mutant metastatic lung cancer patients) was 18.9 months and the “patients with CNS progression” value (EGFR-mutant lung cancer; lung cancer patients treated with osimertinib) was 20%. For the same molecule, the “p-EGFR in micro- and relapsed-metastatic brain lesions” value (phospho-EGFR (Tyr1068) [9]) was “significantly reduced”, the brain-metastasis-progression-free survival (H1650-Tr-BrM cells [10]; osimertinib vs vehicle) was “no longer prolonged” and the “mice with rapid progression to the brain” value (H1650-Tr-BrM cells [10]; vehicle or osimertinib) was 100%.

In the case of retinal, the STRA6 expression (RAR target gene STRA6 [1]; [11]) is reported as “significantly induced” and the STRA6 expression (RAR target gene STRA6 [2]; [11]) is reported as “significantly induced”.
